This is an account of results in the OligoGym collection.

HELM strings list units from the 5' end as sugar, base in round brackets, then linkage (d deoxyribose, r ribose, m 2'-O-methyl, p phosphodiester). Strings are as the collection lists them; they lack the last nucleoside at the 3' end of the tested compound. [moe] = 2'-O-(2-methoxyethyl) (MOE); [sp] = phosphorothioate linkage; [m5C] = 5-methylcytosine

The target in this series is SCN2A. Kind of series: mouse, dose not given. The note with it: ASO.
On to “RNA1{[moe](A)[sp].[moe](T)p.[moe](T)p.[moe](T)p.[moe]([m5C])p.[moe](T)p.d(A)[sp].d(T)[sp].d(A)[sp].d(A)[sp].d([m5C])[sp].d(T)[sp].d([m5C])[sp].d(A)[sp].d(G)[sp].d([m5C])[sp].[moe](A)p.[moe](A)[sp].[moe]([m5C])}$$$$ (last 3' nucleoside missing)”, for which the 3 h FOB score worked out at 1 score 0-7.

For the substance “RNA1{[moe](A)[sp].[moe](T)p.[moe](T)p.[moe](T)p.[moe]([m5C])p.d(T)[sp].d(A)[sp].d(T)[sp].d(A)[sp].d(A)[sp].d([m5C])[sp].d(T)[sp].d([m5C])[sp].d(A)[sp].d(G)[sp].[moe]([m5C])p.[moe](A)p.[moe](A)[sp].[moe]([m5C])}$$$$ (last 3' nucleoside missing)”, the 3 h FOB score was 0 score 0-7.

Substance “RNA1{[moe](A)[sp].[moe](T)p.[moe](T)p.[moe](T)p.d([m5C])[sp].d(T)[sp].d(A)[sp].d(T)[sp].d(A)[sp].d(A)[sp].d([m5C])[sp].d(T)[sp].d([m5C])[sp].d(A)[sp].[moe](G)p.[moe]([m5C])p.[moe](A)p.[moe](A)[sp].[moe]([m5C])}$$$$ (last 3' nucleoside missing)” returned a 3 h FOB score of 0 score 0-7.

“RNA1{[moe](A)[sp].[moe](T)p.[moe](T)p.[moe]([m5C])p.[moe](T)p.[moe](A)p.d(T)[sp].d(T)[sp].d(T)[sp].d(T)[sp].d(A)[sp].d(T)[sp].d(A)[sp].d(A)[sp].d(A)[sp].d(T)[sp].[moe](G)p.[moe]([m5C])[sp].[moe]([m5C])}$$$$ (last 3' nucleoside missing)”: the 3 h FOB score came out at 2 score 0-7.

“RNA1{[moe](A)[sp].[moe](T)p.[moe](T)p.[moe]([m5C])p.[moe](T)p.d(A)[sp].d(T)[sp].d(T)[sp].d(T)[sp].d(T)[sp].d(A)[sp].d(T)[sp].d(A)[sp].d(A)[sp].d(A)[sp].[moe](T)p.[moe](G)p.[moe]([m5C])[sp].[moe]([m5C])}$$$$ (last 3' nucleoside missing)” had a 3 h FOB score of 1 score 0-7.

“RNA1{[moe](A)[sp].[moe](T)p.[moe](T)p.[moe]([m5C])p.[moe](T)p.d(G)[sp].d([m5C])[sp].d(A)[sp].d(T)[sp].d(G)[sp].d(T)[sp].d(A)[sp].d(A)[sp].d([m5C])[sp].d([m5C])[sp].[moe](T)p.[moe](T)p.[moe](T)[sp].[moe](A)}$$$$ (last 3' nucleoside missing)” had a 3 h FOB score of 3 score 0-7.

As for “RNA1{[moe](A)[sp].[moe](T)p.[moe](T)p.[moe]([m5C])p.d(T)[sp].d(A)[sp].d(T)[sp].d(T)[sp].d(T)[sp].d(T)[sp].d(A)[sp].d(T)[sp].d(A)[sp].d(A)[sp].[moe](A)p.[moe](T)p.[moe](G)p.[moe]([m5C])[sp].[moe]([m5C])}$$$$ (last 3' nucleoside missing)”, the 3 h FOB score is 2.67 score 0-7.

“RNA1{[moe](A)[sp].[moe](T)p.[moe]([m5C])p.[moe](A)p.[moe](T)p.[moe](G)p.d([m5C])[sp].d(A)[sp].d(T)[sp].d(A)[sp].d(A)[sp].d(T)[sp].d([m5C])[sp].d([m5C])[sp].d([m5C])[sp].d(A)[sp].[moe](T)p.[moe](T)[sp].[moe](A)}$$$$ (last 3' nucleoside missing)” showed a 3 h FOB score of 0 score 0-7.

Substance “RNA1{[moe](A)[sp].[moe](T)p.[moe]([m5C])p.[moe](A)p.[moe](T)p.d(G)[sp].d([m5C])[sp].d(A)[sp].d(T)[sp].d(A)[sp].d(A)[sp].d(T)[sp].d([m5C])[sp].d([m5C])[sp].d([m5C])[sp].[moe](A)p.[moe](T)p.[moe](T)[sp].[moe](A)}$$$$ (last 3' nucleoside missing)” gave a 3 h FOB score of 0 score 0-7.

In turn, “RNA1{[moe](A)[sp].[moe](T)p.[moe]([m5C])p.[moe](A)p.[moe]([m5C])p.[moe](T)p.d(T)[sp].d(T)[sp].d([m5C])[sp].d(A)[sp].d(T)[sp].d([m5C])[sp].d([m5C])[sp].d(A)[sp].d([m5C])[sp].d(G)[sp].[moe](A)p.[moe]([m5C])[sp].[moe](A)}$$$$ (last 3' nucleoside missing)” showed a 3 h FOB score of 0 score 0-7.

“RNA1{[moe](A)[sp].[moe](T)p.[moe]([m5C])p.[moe](A)p.[moe]([m5C])p.d(T)[sp].d(T)[sp].d(T)[sp].d([m5C])[sp].d(A)[sp].d(T)[sp].d([m5C])[sp].d([m5C])[sp].d(A)[sp].d([m5C])[sp].[moe](G)p.[moe](A)p.[moe]([m5C])[sp].[moe](A)}$$$$ (last 3' nucleoside missing)”: the 3 h FOB score was determined as 1 score 0-7.

“RNA1{[moe](A)[sp].[moe](T)p.[moe]([m5C])p.[moe](A)p.d(T)[sp].d(G)[sp].d([m5C])[sp].d(A)[sp].d(T)[sp].d(A)[sp].d(A)[sp].d(T)[sp].d([m5C])[sp].d([m5C])[sp].[moe]([m5C])p.[moe](A)p.[moe](T)p.[moe](T)[sp].[moe](A)}$$$$ (last 3' nucleoside missing)” showed a 3 h FOB score of 1 score 0-7.

On to “RNA1{[moe](A)[sp].[moe](T)p.[moe]([m5C])p.[moe](A)p.d([m5C])[sp].d(T)[sp].d(T)[sp].d(T)[sp].d([m5C])[sp].d(A)[sp].d(T)[sp].d([m5C])[sp].d([m5C])[sp].d(A)[sp].[moe]([m5C])p.[moe](G)p.[moe](A)p.[moe]([m5C])[sp].[moe](A)}$$$$ (last 3' nucleoside missing)”, for which the 3 h FOB score amounted to 1 score 0-7.

The substance “RNA1{[moe](A)[sp].[moe](T)p.[moe]([m5C])p.[moe](G)p.[moe](A)p.d(T)[sp].d(T)[sp].d([m5C])[sp].d([m5C])[sp].d(T)[sp].d(T)[sp].d(T)[sp].d([m5C])[sp].d(T)[sp].d(G)[sp].[moe]([m5C])p.[moe](A)p.[moe](T)[sp].[moe]([m5C])}$$$$ (last 3' nucleoside missing)” returned a 3 h FOB score of 1 score 0-7.

“RNA1{[moe](A)[sp].[moe]([m5C])p.[moe](A)p.[moe](T)p.[moe](A)p.[moe](T)p.d(T)[sp].d(T)[sp].d(T)[sp].d(T)[sp].d([m5C])[sp].d(T)[sp].d(A)[sp].d([m5C])[sp].d(A)[sp].d([m5C])[sp].[moe](T)p.[moe](G)[sp].[moe]([m5C])}$$$$ (last 3' nucleoside missing)”: the 3 h FOB score was determined as 0 score 0-7.

Take “RNA1{[moe](A)[sp].[moe]([m5C])p.[moe](A)p.[moe](T)p.[moe](A)p.d(T)[sp].d(T)[sp].d(T)[sp].d(T)[sp].d(T)[sp].d([m5C])[sp].d(T)[sp].d(A)[sp].d([m5C])[sp].d(A)[sp].[moe]([m5C])p.[moe](T)p.[moe](G)[sp].[moe]([m5C])}$$$$ (last 3' nucleoside missing)”: the 3 h FOB score is 0 score 0-7.

In turn, “RNA1{[moe](A)[sp].[moe]([m5C])p.[moe](A)p.[moe](T)p.d(A)[sp].d(T)[sp].d(T)[sp].d(T)[sp].d(T)[sp].d(T)[sp].d([m5C])[sp].d(T)[sp].d(A)[sp].d([m5C])[sp].[moe](A)p.[moe]([m5C])p.[moe](T)p.[moe](G)[sp].[moe]([m5C])}$$$$ (last 3' nucleoside missing)” had a 3 h FOB score of 0.33 score 0-7.

“RNA1{[moe](A)[sp].[moe]([m5C])p.[moe](G)p.[moe](A)p.[moe]([m5C])p.[moe](A)p.d(T)[sp].d(A)[sp].d(T)[sp].d(T)[sp].d(T)[sp].d(T)[sp].d(T)[sp].d([m5C])[sp].d(T)[sp].d(A)[sp].[moe]([m5C])p.[moe](A)[sp].[moe]([m5C])}$$$$ (last 3' nucleoside missing)” displayed a 3 h FOB score of 0 score 0-7.

Consider “RNA1{[moe](A)[sp].[moe]([m5C])p.[moe](G)p.[moe](A)p.[moe]([m5C])p.d(A)[sp].d(T)[sp].d(A)[sp].d(T)[sp].d(T)[sp].d(T)[sp].d(T)[sp].d(T)[sp].d([m5C])[sp].d(T)[sp].[moe](A)p.[moe]([m5C])p.[moe](A)[sp].[moe]([m5C])}$$$$ (last 3' nucleoside missing)”, for which the 3 h FOB score came to 0 score 0-7.

As to “RNA1{[moe](A)[sp].[moe]([m5C])p.[moe](G)p.[moe](A)p.d([m5C])[sp].d(A)[sp].d(T)[sp].d(A)[sp].d(T)[sp].d(T)[sp].d(T)[sp].d(T)[sp].d(T)[sp].d([m5C])[sp].[moe](T)p.[moe](A)p.[moe]([m5C])p.[moe](A)[sp].[moe]([m5C])}$$$$ (last 3' nucleoside missing)”, the 3 h FOB score worked out at 0 score 0-7.

Substance “RNA1{[moe](A)[sp].[moe]([m5C])p.[moe](T)p.[moe](G)p.[moe](G)p.d([m5C])[sp].d(T)[sp].d(A)[sp].d(T)[sp].d(A)[sp].d([m5C])[sp].d(T)[sp].d([m5C])[sp].d(A)[sp].d(T)[sp].[moe](T)p.[moe](G)p.[moe]([m5C])[sp].[moe](T)}$$$$ (last 3' nucleoside missing)” displayed a 3 h FOB score of 1.33 score 0-7.

With “RNA1{[moe](A)[sp].[moe]([m5C])p.[moe]([m5C])p.[moe](A)p.[moe]([m5C])p.[moe](G)p.d([m5C])[sp].d(T)[sp].d(T)[sp].d(A)[sp].d([m5C])[sp].d(A)[sp].d(T)[sp].d([m5C])[sp].d(A)[sp].d(A)[sp].[moe](A)p.[moe]([m5C])[sp].[moe](A)}$$$$ (last 3' nucleoside missing)”, the 3 h FOB score turned out to be 0 score 0-7.

“RNA1{[moe](A)[sp].[moe]([m5C])p.[moe]([m5C])p.[moe](A)p.[moe]([m5C])p.d(G)[sp].d([m5C])[sp].d(T)[sp].d(T)[sp].d(A)[sp].d([m5C])[sp].d(A)[sp].d(T)[sp].d([m5C])[sp].d(A)[sp].[moe](A)p.[moe](A)p.[moe]([m5C])[sp].[moe](A)}$$$$ (last 3' nucleoside missing)” returned a 3 h FOB score of 0.33 score 0-7.

In turn, “RNA1{[moe](A)[sp].[moe]([m5C])p.[moe]([m5C])p.[moe](A)p.d([m5C])[sp].d(G)[sp].d([m5C])[sp].d(T)[sp].d(T)[sp].d(A)[sp].d([m5C])[sp].d(A)[sp].d(T)[sp].d([m5C])[sp].[moe](A)p.[moe](A)p.[moe](A)p.[moe]([m5C])[sp].[moe](A)}$$$$ (last 3' nucleoside missing)” registered a 3 h FOB score of 0 score 0-7.

As to “RNA1{[moe](A)[sp].[moe]([m5C])p.[moe]([m5C])p.[moe](G)p.[moe](A)p.[moe](A)p.d(T)[sp].d(T)[sp].d([m5C])[sp].d(T)[sp].d(A)[sp].d(T)[sp].d(T)[sp].d(T)[sp].d(T)[sp].d(A)[sp].[moe](T)p.[moe](A)[sp].[moe](A)}$$$$ (last 3' nucleoside missing)”, the 3 h FOB score was found to be 1.67 score 0-7.
